How the values were obtained:
[1] = tested on: Corynebacterium glutamicum ATCC13032; experiment: Minimum inhibitory concentration, dilution antimicrobial susceptibility test (NCCLS M7-A4); type: cell-based; conditions: sensitive control strain ATCC13032; MÜLLER-HINTON-Bouillon
Excerpt: (§1) The nutrient medium required for this test, “MÜLLER-HINTON-Bouillon”, was obtained from Merck KgaA (Darmstadt, Germany) and employed in accordance with the manufacturer's instructions. […] The plasmid DNA isolated from Corynebacterium glutamicum LP-6 with the aid of an alkaline lysis method (“NucleoBond Nucleic Acid Purification Kits and Cartridges User Manual (PT3167-1)”, Clonetech Laboratories GmbH, Heidelberg, Germany, 1997 I.B.R.) was then transferred to Corynebacterium glutamicum ATCC13032 by electrotransfer.

[2] = tested on: Corynebacterium glutamicum ATCC13032[pTET3]; experiment: as above; type: cell-based; conditions: transformed strain ATCC13032[pTET3]; MÜLLER-HINTON-Bouillon
Excerpt: as §1

[3] = tested on: Corynebacterium glutamicum LP-6; conditions: resistant test strain LP-6; MÜLLER-HINTON-Bouillon
Excerpt: as §1

## CN(C)[C@@H]1C(O)=C(C(N)=O)C(=O)[C@@]2(O)C(O)=C3C(=O)c4c(O)cccc4[C@@](C)(O)[C@H]3C[C@@H]12 [Tetracycline, tetracycline]
[1]
  Minimum inhibitory concentration: ≦0.75 μg tetracycline per ml
[2]
  Minimum inhibitory concentration: ≦12 μg tetracycline per ml
[3]
  Minimum inhibitory concentration: ≦12 μg tetracycline per ml
